Experimental data reported in ChEMBL document CHEMBL1133043, “Potent inhibition of retinoic acid metabolism enzyme(s) by novel azolyl retinoids” (Bioorg Med Chem Lett, 2000).
pIC50: −log10 of the molar value.

Test system: Cricetinae gen. sp.
Test: The compound was tested for the inhibition of all-trans retinoic acid (ATRA) catabolism using 7.27 pmol [11,12-3H]-ATRA as substrate in microsomal preparations of male hamster liver fortified with NADPH
Assay type: functional

| Compound | pIC50 |
| --- | --- |
| CC1=C(/C=C/C(C)=C/C=C/C(C)=C/C(=O)O)C(C)(C)CCC1n1cncn1 (stereo not given) | 6.06 |
| COC(=O)/C=C(C)/C=C/C=C(C)/C=C/C1=C(C)C(n2cncn2)CCC1(C)C (stereo not given) | 6.17 |
| CC1=C(/C=C/C(C)=C/C=C/C(C)=C/C(=O)O)C(C)(C)CCC1n1cnnc1 (stereo not given) | 5.79 |
| CC1=C(/C=C/C(C)=C/C=C/C(C)=C/C(=O)O)C(C)(C)CCC1n1ccnc1 (stereo not given) | 7.00 |
| CC(=O)N1CCN(c2ccc(OC[C@H]3CO[C@](Cn4ccnc4)(c4ccc(Cl)cc4Cl)O3)cc2)CC1 [KETOCONAZOLE] | 4.47 |
